The values that follow come from patent EP0775489A1, “INTERLEUKIN-5 PRODUCTION INHIBITOR” (TAISHO PHARMACEUTICAL CO. LTD, priority 1994, dated 1996).

One data set concerns ICR male mice. Description: Oral toxicity (mortality) in mice. Format: in vivo. As to conditions: orally administered to ICR male mice grouped in fives, dose level of 100 mg/kg. The source says: The compounds of Examples 1, 2, and 3 were orally administered to ICR male mice grouped in fives.
Data set [1] has as its system IL-5 production. Description: Inhibition of IL-5 production by D10.G4.1 Th2 cells stimulated with conalbumin and antigen presenting cells (IL-5 ELISA). The data set is classed as cell-based. As to conditions: inhibitory effect on IL-5 production; murine Th2 clone D10.G4.1 cells, conalbumin as antigen, 48 hours incubation, IL-5 in supernatant by ELISA. On the procedure: The action on IL-5 production in mice was examined according to the following method as disclosed in […], et al., Immunology Letters, Vol. 34, pp. 297-302 (1992). Murine Th2 clone (D10.G4.1 cells) was purchased from ATCC. Antigen presenting cells were prepared by suspending 1 x 10^7 spleen cells of a 8-week-old female C3H/HeN mice in 5 ml of an RPMI-1640 medium and incubated together with 50 μg/ml of mitomycin C (MMC) at 37°C for 30 minutes and then washed with three 50 ml portions of RPMI-1640. To RPMI-1640 containing 10% bovine serum were added 0.5 U of IL-2 (produced by Genzyme) and 5 x 10^-5 M of 2-mercaptoethanol to prepare a medium for tissue culture. A test compound was dissolved in dimethyl sulfoxide (DMSO) and diluted with the tissue culture medium to have a final DMSO concentration of 0.1% and a varied test compound concentration. In each well of a 96-well microtiter plate (produced by Corning Glass Works) were put each 50 μl/well of 4 x 10^5 cells/ml of D10.G4.1 cells, 2 x 10^6 cells/ml of MMC-treated antigen presenting cells, 400 μg/ml of conalbumin (produced by Sigma) as an antigen and the solution of the test compound in the tissue culture medium (to make 200 μl/well), and incubated in an incubator under 5% CO2 at 37°C for 48 hours. After completion of the incubation, the supernatant liquor of the culture was collected, and the cells were separated by centrifugation. The IL-5 in the supernatant liquor was determined with an IL-5 ELISA kit produced by ENDOGEN. […]

Data set [2] deals with IL-5 production. As to conditions: reported in Japanese Journal of Allergology, 44(3-2), p. 424 (1993); judged not sufficient by the patent; cited from earlier work.

Consider “6-O-Methylerythromycin A 9-[O-(2-Chlorophenylmethyl)oxime] [Compound of Example 1]”, for which the death entry in the data set on ICR male mice is on record as “No death was observed”. In addition, in the data set with IL-5 production [1], the IC50 – broadly, the concentration that inhibits the measured activity by half – amounted to 0.27 µM.

For the compound “6-O-Methylerythromycin A 9-[O-(3-Methoxy-4-t-butylbenzyl)oxime] 11,12-Cyclic Carbonate [Compound of Example 2]”, the death entry in the data set on ICR male mice was “No death was observed”. Half-maximal inhibition in the data set on IL-5 production [1] (IC50) required 0.12 µM.

Consider “11-Amino-9-N,11-N-cyclic ethylene-9-deoxo-11-deoxy-6-O-methylerythromycin A 9-Benzylamine 11-N,12-O-Cyclic Carbamate [Compound of Example 3]”, for which the death entry in the data set on ICR male mice was “No death was observed”. The IC50 in the data set with IL-5 production [1] amounted to 0.12 µM.

`CC[C@H]1OC(=O)[C@H](C)[C@@H](O[C@H]2C[C@@](C)(OC)[C@@H](O)[C@H](C)O2)[C@H](C)[C@@H](O[C@@H]2O[C@H](C)C[C@H](N(C)C)[C@H]2O)[C@](C)(O)C[C@@H](C)C(=O)[C@H](C)[C@@H](O)[C@]1(C)O` [Erythromycin]: the “inhibitory activity on IL-5 production” value in the data set on IL-5 production [2] was “have an inhibitory activity on IL-5 production”.

With `CC[C@H]1OC(=O)[C@H](C)[C@@H](O[C@H]2C[C@@](C)(OC)[C@@H](O)[C@H](C)O2)[C@H](C)[C@@H](O[C@@H]2O[C@H](C)C[C@H](N(C)C)[C@H]2O)[C@](C)(O)C[C@@H](C)/C(=N\OCOCCOC)[C@H](C)[C@@H](O)[C@]1(C)O` [Roxithromycin], in the data set on IL-5 production [2], the “inhibitory activity on IL-5 production” value is reported as “have an inhibitory activity on IL-5 production”.
